Test results as given in article PMC5507300, “Antibacterial small molecules targeting the conserved TOPRIM domain of DNA gyrase” (PLoS ONE, 2017).

Experiments:
[1] = test system: DNA synthesis in E. coli JL553; test: Macromolecule synthesis labeling; format: cell-based; settings: E. coli JL553, 25 min exposure, labeled precursor incorporation
Method: Macromolecule synthesis profiling was conducted as described by Montgomery, et al. with minor modifications. E. coli strain JL553 (tolC, lysE) was used to measure inhibition of DNA, RNA, protein, peptidoglycan and phospholipid biosynthesis while E. coli MB5500 (lpxC [envA1], galE; Merck & Co., Inc., Kenilworth, NJ, USA, strain collection) was used to measure inhibition of lipopolysaccharide biosynthesis. Radioisotope labeled precursors were used at the following final concentrations [2-^14C]-thymidine (2.5 μCi/mL), [^14C(U)]-uridine (0.5 μCi/mL), L-[4, 5-^3H]-leucine (5 μCi/mL), [2-^3H]-glycerol (2 μCi/mL), [^3H]-diaminopimelic acid (3 μCi/mL), D-[1-^14C]-galactose (0.5 μCi/mL). Compound concentrations (3-fold serial dilutions) were chosen to place the minimum inhibitory concentration (see below) near the center of the dose range. Labeled cultures were incubated with compound for 25 min; stopped with trichloroacetic acid, filtered and incorporation was measured as described. Percent inhibition of incorporation was calculated relative to an untreated control culture for each labeled precursor and plotted with GraphPad Prism.

[2] = biological target: T1, E. coli DNA gyrase GyrB (F513L) (Escherichia coli, UniProt P0AES6, F513L); test: Gel supercoiling assay, reconstituted GyrB (F513L) gyrase; format: biochemical
T1 construct: His6 tag followed by TEV site (X1: […]) (N, cleaved yes); made in house; host or cells: E. coli BL21(DE3) RIL
Method: Conditions to measure the supercoiling of a relaxed, closed-circular plasmid substrate and cleavage complex stabilization in agarose gels were adapted from the literature and carried out as described below. Plasmid supercoiling reactions were assembled by combining 0.4 μL compound (in 100% DMSO), 12.5 μL H2O, 4 μL 5Xbuffer, 0.4 μL relaxed pUC19 DNA substrate (0.5 μg), […] dilute DNA gyrase (buffer, substrate, and enzyme from New England Biolabs, Beverly, MA). Alternatively the substrate pHOT-1 (TopoGEN, Buena Vista, CO) was used as noted (the substrate from New England Biolabs has been discontinued). P. aeruginosa DNA gyrase was supplied by Inspiralis, Norwich, UK. […] The gel was illuminated with UV light, photographed, and DNA quantitated with an Alpha Imager and accompanying software (ProteinSimple, San Jose, CA). […]
The E. coli gyrA and gyrB (wild-type and t1537c (F513L)) genes with a N-terminal His6 tag sequence followed by Tobacco Etch Virus (TEV) cleavage site ([…]) were cloned into pET28(+) vector (EMD Millipore). […] Fractions containing gyrase subunit protein (as monitored by sodium dodecyl sulfate polyacrylamide gel electrophoresis (SDS-PAGE)) were pooled and loaded onto a Q-Sepharose column (GE Healthcare, Princeton, NJ, USA) equilibrated in 20 mM Tris-HCl (pH = 7.9), 25mM NaCl, 10% glycerol, and 2 mM β-mercaptoethanol. […]

P. aeruginosa DNA gyrase = biological target: T2, P. aeruginosa DNA gyrase (Pseudomonas aeruginosa, UniProt Q9I7C2); test: Agarose gel DNA gyrase supercoiling assay, P. aeruginosa; format: biochemical; settings: gel-based assay, Fig 3B
T2 construct: purchased Inspiralis, Norwich, UK
T2 sequence (Q9I7C2 whole entry): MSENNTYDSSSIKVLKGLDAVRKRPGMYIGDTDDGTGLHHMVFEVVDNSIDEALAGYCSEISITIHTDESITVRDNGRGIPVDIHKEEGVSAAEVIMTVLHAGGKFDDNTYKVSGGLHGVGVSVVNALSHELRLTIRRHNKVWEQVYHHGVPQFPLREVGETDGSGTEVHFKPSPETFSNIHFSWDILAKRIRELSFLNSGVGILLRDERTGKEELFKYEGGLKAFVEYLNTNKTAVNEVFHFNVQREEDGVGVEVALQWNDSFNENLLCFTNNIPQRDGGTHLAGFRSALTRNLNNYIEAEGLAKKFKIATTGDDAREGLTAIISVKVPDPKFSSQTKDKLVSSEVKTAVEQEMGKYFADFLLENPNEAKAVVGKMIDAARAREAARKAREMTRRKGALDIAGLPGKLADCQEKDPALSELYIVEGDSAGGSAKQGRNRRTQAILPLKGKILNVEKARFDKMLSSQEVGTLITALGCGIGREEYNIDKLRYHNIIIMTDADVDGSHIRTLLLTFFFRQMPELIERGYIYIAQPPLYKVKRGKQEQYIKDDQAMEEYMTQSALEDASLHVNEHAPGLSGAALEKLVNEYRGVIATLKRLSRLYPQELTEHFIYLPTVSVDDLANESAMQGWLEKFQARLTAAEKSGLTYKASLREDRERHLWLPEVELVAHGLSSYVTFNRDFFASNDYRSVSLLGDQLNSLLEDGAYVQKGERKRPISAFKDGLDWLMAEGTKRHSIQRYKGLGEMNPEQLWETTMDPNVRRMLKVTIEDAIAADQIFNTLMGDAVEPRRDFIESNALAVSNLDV
T2 sequence (P48372 whole entry, further chain): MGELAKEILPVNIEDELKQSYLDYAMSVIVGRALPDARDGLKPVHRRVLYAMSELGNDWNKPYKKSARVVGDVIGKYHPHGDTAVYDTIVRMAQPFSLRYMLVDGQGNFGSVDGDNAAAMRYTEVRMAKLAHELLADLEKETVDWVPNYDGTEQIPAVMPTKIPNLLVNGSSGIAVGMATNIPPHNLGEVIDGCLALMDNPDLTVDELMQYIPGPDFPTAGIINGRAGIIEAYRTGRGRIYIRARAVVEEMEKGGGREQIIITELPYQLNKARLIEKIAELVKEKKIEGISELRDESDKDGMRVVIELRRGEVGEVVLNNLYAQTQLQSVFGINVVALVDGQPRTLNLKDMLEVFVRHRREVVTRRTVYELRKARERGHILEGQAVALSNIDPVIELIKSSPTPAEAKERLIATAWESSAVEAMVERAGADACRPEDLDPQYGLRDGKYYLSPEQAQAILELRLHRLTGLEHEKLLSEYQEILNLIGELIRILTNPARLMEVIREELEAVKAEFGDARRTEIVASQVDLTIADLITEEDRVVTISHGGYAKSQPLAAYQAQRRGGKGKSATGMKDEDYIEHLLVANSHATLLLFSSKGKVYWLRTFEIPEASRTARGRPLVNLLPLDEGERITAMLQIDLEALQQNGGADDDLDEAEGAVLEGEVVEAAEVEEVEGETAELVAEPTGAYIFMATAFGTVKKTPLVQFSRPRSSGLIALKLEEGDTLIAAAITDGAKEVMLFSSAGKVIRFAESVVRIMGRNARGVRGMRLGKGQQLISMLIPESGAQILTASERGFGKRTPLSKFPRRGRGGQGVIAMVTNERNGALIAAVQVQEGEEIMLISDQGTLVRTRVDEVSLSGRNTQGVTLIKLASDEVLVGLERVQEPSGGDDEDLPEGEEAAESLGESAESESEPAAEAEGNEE
Method: Conditions to measure the supercoiling of a relaxed, closed-circular plasmid substrate and cleavage complex stabilization in agarose gels were adapted from the literature and carried out as described below. Plasmid supercoiling reactions were assembled by combining 0.4 μL compound (in 100% DMSO), 12.5 μL H2O, 4 μL 5Xbuffer, 0.4 μL relaxed pUC19 DNA substrate (0.5 μg), […] dilute DNA gyrase (buffer, substrate, and enzyme from New England Biolabs, Beverly, MA). Alternatively the substrate pHOT-1 (TopoGEN, Buena Vista, CO) was used as noted (the substrate from New England Biolabs has been discontinued). P. aeruginosa DNA gyrase was supplied by Inspiralis, Norwich, UK. Reactions were allowed to proceed for 30 min. at 37°C after which 5 μL of stop buffer (5% sarkosyl, 25% glycerol, 1X Blue Juice [Invitrogen, Carlsbad, CA]) were added. Reactions were then extracted with 20 μL chloroform/isoamylOH (24:1) and a portion of the aqueous phase was loaded into a well in a 1% agarose/Tris-borate EDTA gel. Electrophoresis was conducted at 35 VDC until the loading dye migrated about 6.5 cm down the gel. DNA in the gel was then stained in 0.5 μg/mL ethidium bromide in water for 30 min. and rinsed (3X) in H2O. The gel was illuminated with UV light, photographed, and DNA quantitated with an Alpha Imager and accompanying software (ProteinSimple, San Jose, CA). […]

S. aureus DNA gyrase = biological target: T3, S. aureus DNA gyrase (Staphylococcus aureus, UniProt P0A0K8); test: S. aureus DNA gyrase supercoiling reaction; format: biochemical; settings: maximum achievable concentration (200 μM), pHOT-1 supercoiling
T3 construct: purchased TopoGEN, Inc
T3 sequence (P0A0K8 whole entry): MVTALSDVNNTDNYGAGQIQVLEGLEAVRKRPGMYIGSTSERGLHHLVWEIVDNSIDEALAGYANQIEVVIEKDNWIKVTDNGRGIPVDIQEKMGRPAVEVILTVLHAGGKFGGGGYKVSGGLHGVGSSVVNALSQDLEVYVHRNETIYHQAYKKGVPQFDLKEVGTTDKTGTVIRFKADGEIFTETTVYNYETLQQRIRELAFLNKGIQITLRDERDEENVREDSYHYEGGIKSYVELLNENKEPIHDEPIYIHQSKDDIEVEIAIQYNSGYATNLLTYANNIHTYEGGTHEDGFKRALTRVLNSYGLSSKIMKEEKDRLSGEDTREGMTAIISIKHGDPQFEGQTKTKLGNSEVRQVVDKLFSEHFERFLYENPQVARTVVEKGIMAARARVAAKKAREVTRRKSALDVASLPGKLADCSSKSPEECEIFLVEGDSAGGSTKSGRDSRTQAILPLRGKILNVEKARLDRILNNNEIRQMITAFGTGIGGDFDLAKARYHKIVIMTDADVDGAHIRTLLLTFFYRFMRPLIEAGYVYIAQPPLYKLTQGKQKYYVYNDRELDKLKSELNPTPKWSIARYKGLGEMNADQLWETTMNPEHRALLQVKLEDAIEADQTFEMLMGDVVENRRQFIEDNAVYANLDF
T3 sequence (P20831 whole entry, further chain): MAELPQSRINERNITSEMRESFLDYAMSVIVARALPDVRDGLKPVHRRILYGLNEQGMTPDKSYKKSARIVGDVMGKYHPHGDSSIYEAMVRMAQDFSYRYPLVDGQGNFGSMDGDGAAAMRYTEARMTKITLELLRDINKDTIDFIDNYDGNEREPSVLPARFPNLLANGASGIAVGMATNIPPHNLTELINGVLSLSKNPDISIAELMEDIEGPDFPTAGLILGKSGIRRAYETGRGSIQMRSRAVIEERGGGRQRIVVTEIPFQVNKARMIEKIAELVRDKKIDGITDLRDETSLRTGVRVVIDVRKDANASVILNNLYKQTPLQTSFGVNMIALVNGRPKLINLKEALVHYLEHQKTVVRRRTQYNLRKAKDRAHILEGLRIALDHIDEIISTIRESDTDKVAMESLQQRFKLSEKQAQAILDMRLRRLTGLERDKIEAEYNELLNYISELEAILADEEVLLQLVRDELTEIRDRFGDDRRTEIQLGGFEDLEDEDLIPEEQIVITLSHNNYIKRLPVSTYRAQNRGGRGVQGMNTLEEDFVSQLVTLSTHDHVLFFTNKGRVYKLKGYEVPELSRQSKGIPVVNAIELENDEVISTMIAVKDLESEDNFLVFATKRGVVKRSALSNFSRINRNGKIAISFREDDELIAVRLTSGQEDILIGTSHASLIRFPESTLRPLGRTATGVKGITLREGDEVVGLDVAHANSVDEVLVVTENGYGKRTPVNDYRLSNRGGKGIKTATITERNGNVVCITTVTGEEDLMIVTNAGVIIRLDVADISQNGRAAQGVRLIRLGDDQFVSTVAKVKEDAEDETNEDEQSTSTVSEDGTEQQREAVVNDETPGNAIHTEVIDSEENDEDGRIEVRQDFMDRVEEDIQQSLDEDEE

Compound | inhibition of macromolecule synthesis [1] | IC50 [2] | activity against P. aeruginosa DNA gyrase (P. aeruginosa DNA gyrase) | activity against S. aureus DNA gyrase (S. aureus DNA gyrase)
COc1ccc(C)cc1NC(=O)N1CCC(n2nncc2-c2ccc3c(cnn3C)c2)CC1 [MRL-770] | selective and reproducible inhibition of DNA synthesis | – | – | –
Cn1ncc2cc(-c3nnnn3C3CCN(C(=O)Nc4ccc(Cl)c(Cl)c4)CC3)ccc21 [MRL-1082] | – | > 200 µM | active | does not inhibit
